Experimental data taken from ChEMBL document CHEMBL1201862, “PubChem BioAssay data set” (2004).
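Results reflect a 48-hour exposure of cells in 96-well plates to compound at five concentrations. GI50 marks 50% less growth.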 Activity calls are given as the source filed them. Rule as the data show it: active = GI50 up to about 1.1 µM and inactive = higher.

Legend:
Test in all cases: NCI-60 cell line screen, 48 h
786-0 = test system: 786-0
ACHN = test system: ACHN
HL-60 = test system: HL-60
HOP-92 = test system: HOP-92
K562 = test system: K562
KM12 = test system: KM12
MDA-MB-231 = test system: MDA-MB-231
MDA-N = test system: MDA-N
MOLT-4 = test system: MOLT-4
NCI-H226 = test system: NCI-H226
NCI-H460 = test system: NCI-H460
NCI/ADR-RES = test system: NCI/ADR-RES
OVCAR-3 = test system: OVCAR-3
SK-MEL-28 = test system: SK-MEL-28
SK-MEL-2 = test system: SK-MEL-2
SNB-19 = test system: SNB-19
UACC-62 = test system: UACC-62
OVCAR-5 = test system: OVCAR-5
HOP-62 = test system: HOP-62

Structure (SMILES) | GI50 (786-0) | GI50 (ACHN) | GI50 (HL-60) | GI50 (HOP-92) | GI50 (K562) | GI50 (KM12) | GI50 (MDA-MB-231) | GI50 (MDA-N) | GI50 (MOLT-4) | GI50 (NCI-H226) | GI50 (NCI-H460) | GI50 (NCI/ADR-RES) | GI50 (OVCAR-3) | GI50 (SK-MEL-28) | GI50 (SK-MEL-2) | GI50 (SNB-19) | GI50 (UACC-62) | GI50 (OVCAR-5) | GI50 (HOP-62)
COC(=O)C(CCCCN)NC(=O)C(CCCCN)NC(C)=O.Cc1ccc(C(=O)Nc2ccc(S(=O)(=O)O)c3cc(S(=O)(=O)O)cc(S(=O)(=O)O)c23)cc1NC(=O)c1cccc(NC(=O)Nc2cccc(C(=O)Nc3cc(C(=O)Nc4ccc(S(=O)(=O)O)c5cc(S(=O)(=O)O)cc(S(=O)(=O)O)c45)ccc3C)c2)c1 | > 50 µM (inactive) | > 50 µM (inactive) | > 50 µM (inactive) | > 50 µM (inactive) | > 50 µM (inactive) | > 50 µM (inactive) | 16.2 µM (inactive) | > 50 µM (inactive) | > 50 µM (inactive) | > 50 µM (inactive) | > 50 µM (inactive) | > 50 µM (inactive) | > 50 µM (inactive) | > 50 µM (inactive) | > 50 µM (inactive) | > 50 µM (inactive) | > 50 µM (inactive) | – | –
CC(NC(=O)c1ccccc1)NC(=O)C(C)C(=O)Nc1ccccc1 (stereo not given) | > 100 µM (inactive) | > 100 µM (inactive) | > 100 µM (inactive) | 49.1 µM (inactive) | > 100 µM (inactive) | > 100 µM (inactive) | > 100 µM (inactive) | > 100 µM (inactive) | > 100 µM (inactive) | 89.5 µM (inactive) | > 100 µM (inactive) | > 100 µM (inactive) | – | – | > 100 µM (inactive) | 27.4 µM (inactive) | > 100 µM (inactive) | > 100 µM (inactive) | –
Nn1c(Nc2ccc(S(=O)(=O)Nc3ncccn3)cc2)nnc(/C=C/c2c(O)ccc3ccccc23)c1=O | 26.6 µM (inactive) | 25.8 µM (inactive) | 20.6 µM (inactive) | 66.2 µM (inactive) | 29 µM (inactive) | – | 21.8 µM (inactive) | 31.4 µM (inactive) | > 100 µM (inactive) | – | 23.3 µM (inactive) | 32.7 µM (inactive) | 15.1 µM (inactive) | – | 18.5 µM (inactive) | 46.9 µM (inactive) | 20.5 µM (inactive) | 32.7 µM (inactive) | 33.6 µM (inactive)
C[C@]12CCC(O)CC1=CC[C@@H]1[C@@H]2CC[C@]2(C)C(O)[C@H](n3ccnc3)C[C@@H]12 (stereo not given in full) | > 100 µM (inactive) | 62.2 µM (inactive) | 11.1 µM (inactive) | 20.2 µM (inactive) | 12 µM (inactive) | 56.2 µM (inactive) | > 100 µM (inactive) | 79.3 µM (inactive) | 17.4 µM (inactive) | > 100 µM (inactive) | 24.8 µM (inactive) | > 100 µM (inactive) | 72.4 µM (inactive) | > 100 µM (inactive) | 52.1 µM (inactive) | 90.4 µM (inactive) | 77.1 µM (inactive) | > 100 µM (inactive) | –
COC(=O)C1(C)CCc2c(ccc3ccccc23)C1=O (stereo not given) | 65 µM (inactive) | 55.1 µM (inactive) | 35.9 µM (inactive) | 45.4 µM (inactive) | 52.4 µM (inactive) | 25.8 µM (inactive) | 49.1 µM (inactive) | 27 µM (inactive) | 34.8 µM (inactive) | – | 40.5 µM (inactive) | 34.8 µM (inactive) | 30.1 µM (inactive) | 64.7 µM (inactive) | 26.8 µM (inactive) | 45.2 µM (inactive) | 32.4 µM (inactive) | > 100 µM (inactive) | 78.7 µM (inactive)
CC(NC(=O)OC(C)(C)C)C(=O)C(N)=O (stereo not given) | > 100 µM (inactive) | > 100 µM (inactive) | > 100 µM (inactive) | > 100 µM (inactive) | > 100 µM (inactive) | – | > 100 µM (inactive) | > 100 µM (inactive) | > 100 µM (inactive) | > 100 µM (inactive) | > 100 µM (inactive) | > 100 µM (inactive) | – | > 100 µM (inactive) | > 100 µM (inactive) | > 100 µM (inactive) | – | > 100 µM (inactive) | > 100 µM (inactive)
C=CCOc1ccc(C(/N=N\c2ccc(Cl)cc2)=N/NC(=O)c2ccccc2)cc1OC | > 100 µM (inactive) | 89.1 µM (inactive) | 33.8 µM (inactive) | 32.1 µM (inactive) | – | 38.5 µM (inactive) | > 100 µM (inactive) | 35 µM (inactive) | 32.1 µM (inactive) | 53.7 µM (inactive) | 36.1 µM (inactive) | 72.4 µM (inactive) | 62.7 µM (inactive) | 19 µM (inactive) | > 100 µM (inactive) | > 100 µM (inactive) | 23.8 µM (inactive) | > 100 µM (inactive) | > 100 µM (inactive)
C/C(=N\N=C(N)N)c1c(C(=O)OCCCCCCOC(=O)c2nc3sccn3c2/C(C)=N/N=C(N)N)nc2sccn12 | 41.9 µM (inactive) | > 100 µM (inactive) | 32.1 µM (inactive) | > 100 µM (inactive) | 19.5 µM (inactive) | > 100 µM (inactive) | > 100 µM (inactive) | > 100 µM (inactive) | 32.2 µM (inactive) | > 100 µM (inactive) | > 100 µM (inactive) | > 100 µM (inactive) | – | > 100 µM (inactive) | > 100 µM (inactive) | 63.8 µM (inactive) | > 100 µM (inactive) | > 100 µM (inactive) | –
Cn1c(NN)nc(-c2ccc([N+](=O)[O-])cc2)c(C#N)c1=O | 14.2 µM (inactive) | 12.2 µM (inactive) | 30.8 µM (inactive) | – | 38.2 µM (inactive) | 16.3 µM (inactive) | 12.7 µM (inactive) | 12.4 µM (inactive) | – | 11 µM (inactive) | 17.3 µM (inactive) | 31 µM (inactive) | 17.1 µM (inactive) | 12.5 µM (inactive) | 22.2 µM (inactive) | 13.5 µM (inactive) | 15.6 µM (inactive) | 20.8 µM (inactive) | 14.1 µM (inactive)
O=C1/C(=C/c2ccc3c(c2)CCC3)Cc2cc3c(cc21)CCC3 | – | > 100 µM (inactive) | > 100 µM (inactive) | < 0.01 µM (active) | > 100 µM (inactive) | > 100 µM (inactive) | 76.9 µM (inactive) | > 100 µM (inactive) | > 100 µM (inactive) | > 100 µM (inactive) | > 100 µM (inactive) | > 100 µM (inactive) | > 100 µM (inactive) | > 100 µM (inactive) | > 100 µM (inactive) | 61.9 µM (inactive) | > 100 µM (inactive) | > 100 µM (inactive) | > 100 µM (inactive)
Cc1ccc(/N=N/c2c(C)nn(C(=O)CC(=O)Nc3ccc(Cl)cc3)c2C)cc1C | 53 µM (inactive) | 5.79 µM (inactive) | 24.4 µM (inactive) | 12.4 µM (inactive) | – | > 100 µM (inactive) | 24.3 µM (inactive) | > 100 µM (inactive) | 28.7 µM (inactive) | > 100 µM (inactive) | > 100 µM (inactive) | > 100 µM (inactive) | > 100 µM (inactive) | > 100 µM (inactive) | 77.8 µM (inactive) | 15.5 µM (inactive) | 79.4 µM (inactive) | 98.2 µM (inactive) | 34 µM (inactive)
Oc1ccc2ccccc2c1/N=N/c1ccc(Cl)cc1 | 34.6 µM (inactive) | > 100 µM (inactive) | > 100 µM (inactive) | > 100 µM (inactive) | > 100 µM (inactive) | > 100 µM (inactive) | 26.9 µM (inactive) | > 100 µM (inactive) | > 100 µM (inactive) | > 100 µM (inactive) | – | > 100 µM (inactive) | > 100 µM (inactive) | > 100 µM (inactive) | > 100 µM (inactive) | > 100 µM (inactive) | > 100 µM (inactive) | > 100 µM (inactive) | > 100 µM (inactive)
CSc1nc2c3ccccc3ccn2c1C(=O)N/N=C/c1ccccc1 | 15.5 µM (inactive) | 9.06 µM (inactive) | > 100 µM (inactive) | 1.65 µM (inactive) | > 100 µM (inactive) | > 100 µM (inactive) | 18.1 µM (inactive) | 97.3 µM (inactive) | > 100 µM (inactive) | 36 µM (inactive) | 17.3 µM (inactive) | 28.9 µM (inactive) | 17.9 µM (inactive) | > 100 µM (inactive) | > 95.7 µM (inactive) | – | > 100 µM (inactive) | > 75.5 µM (inactive) | 13 µM (inactive)
COc1ccc(/C=C/C(=O)c2ccc(Br)cc2)cc1 | > 100 µM (inactive) | > 100 µM (inactive) | 66.8 µM (inactive) | – | > 100 µM (inactive) | > 100 µM (inactive) | > 100 µM (inactive) | > 100 µM (inactive) | 59.3 µM (inactive) | > 100 µM (inactive) | > 100 µM (inactive) | 52 µM (inactive) | – | > 100 µM (inactive) | > 100 µM (inactive) | > 100 µM (inactive) | > 100 µM (inactive) | 18.4 µM (inactive) | > 100 µM (inactive)
Clc1ccc(CSC2=NCCN2)cc1Cl | 11.6 µM (inactive) | 15 µM (inactive) | 10.9 µM (inactive) | 3.3 µM (inactive) | 13.5 µM (inactive) | 16.9 µM (inactive) | 11.8 µM (inactive) | 11.7 µM (inactive) | 11.2 µM (inactive) | 20.7 µM (inactive) | 16.1 µM (inactive) | 20.1 µM (inactive) | 14.1 µM (inactive) | 18.7 µM (inactive) | – | 32.3 µM (inactive) | 15.9 µM (inactive) | 19.3 µM (inactive) | 23.4 µM (inactive)
